The text below walks through data of patent publication EP2236511A2, “LIGANDS OF ALPHA-ADRENOCEPTORS AND OF DOPAMINE, HISTAMINE, IMIDAZOLINE AND SEROTONIN RECEPTORS AND THE USE THEREOF” (priority 2007, dated 2009).

Test [1] deals with male mice of BALB/c line. Kind of test: Passive Avoidance of mice in the Shuttle Chamber, memory disturbed by Scopolamine. The test is classed as in vivo. The note with it: Scopolamine 0.3 mg/kg, injected 30 minutes before training; figures 1-3. How it is done:
Example 14. […] A shuttle chamber (Ugo Basile, Italy) consisted of two sections was used. […] The sections were connected through a hole which could be overlapped by a vertical door. The floor was made of transverse metal bars on which DC current impulses could be fed. Experiments were carried out in aged male mice of BALB/c line weighing 20-24 grams.
Each group consisted of at least 8 animals. Animal was placed in light section, and latent period of the first entry into dark chamber was registered. Then the vertical door was closed and the animal was punished by 0.6 mA DC current for 3 seconds. After that it was taken back to its homecage. In 22-24 hours the same animal was placed again in light section of the shuttle chamber and latent period of its first entry into dark section, the total time of its stay in light section, and the number of entries into dark section, were registered. Each monitoring lasted for 5 minutes.
Testing was carried out during the day time in isolated laboratory using white noise at level of about 70 decibel above human hearing threshold.
Scopolamine causes the disturbance of training (memory loss) that results in […].

Test [2] has as its system mice. The test can be described thus: Tail suspension test. The test is classed as in vivo. The note with it: dose of 0.05 mg/kg during 4 days; fig. 16. How it is done: Example 20. Mice behavior in tail suspension test. In the test a mouse was suspended by tail with a sticky tape on the holder over horizontal surface at a height of 40 cm, and during 3 minutes the total time of complete immobility was recorded. Automated computerized detection of motion with videosystem and Any-maze programm were used. After administration of ligand 1.1.2(1-2) (CD-008-0045) in dose of 0.05 mg/kg during 4 days the time of complete immobility of mouse was lowered almost by factor of 2.5 (fig.16), that testifies the cutting of period of depressively-like condition.

For test [3], the system named is mice. Kind of test: Mice Training in Morris Water Maze (Scopolamine). The settings on record: unitary introduction of active ingredient; figures 10-13. It counts as in vivo. How it is done: Example 17. Mice Training in Morris Water Maze. A round pool which was filled with water at 20-22°C was used. A round ceramic platform of 14cm height was placed in the pool. Animals's behavior was registered with automated computer videosystem in combination with software package of movement analysis Any-maze (Stoelting Co., US). Before testing mice suitable for training were selected. That was done by placing the platform 1cm above the water level and putting an animal on the platform for 20 seconds. Then the mouse was sunk into the water on the opposite side of the pool, allowed to find the platform and climbed it […] 60 seconds, where it was left for additional 20 seconds. After that the mouse was repeatedly immersed into water on the opposite side of the pool and allowed to look for platform. If it failed in finding the platform within 60 seconds the experimentator helped it to find the platform and climb it. If the mice could not find the platform itself in two consecutive attempts it was excluded from experiment. During the next two days the platform was placed 0.5 centimeter lower the water level. Every day the mice were given four attempts for finding the platform within 60 seconds. The time interval between the attempts was 20 seconds, during which the mice stayed on the platform. Every day before the first attempt mouse was placed on the platform for 20 seconds. The time needed for finding and climbing the platform was registered. The animals were sunk in water in 3 different places on the side of the pool opposite to platform. On each day of two-day testing 35-40 minutes before the beginning of training the mice were injected intraintestinally with physiological solution, Scopolamine or Scopolamine in combination with investigated compound. At least 8 animals were used in each group. On the third day the platform was removed and each animal was placed one time in the pool for a period of 60 seconds. The time each mouse spent in the area where the platform had been located during the previous days was registered. This time interval was regarded as a measure of effectiveness of training fulfilled during the previous two days. The testing was carried out during the day time in isolated laboratory using "white noise" at level of about 70 decibel above the human hearing threshold.

Test [4] has as its target T1, recombinant human 5-HT2B receptor (Homo sapiens, UniProt P41595).
T1 construct: expressed in transfected cells; host or cells: CHO-K1
Kind of test: Radioligand binding to serotonin receptor 5-HT2B ([3H] Lysergic acid diethylamide, CHO-K1 membranes).
Experimental: For this purpose membrane species are prepared from CHO-K1 cells comprising recombinant human 5-HT2B receptor by homogenization of recombinant cells in glass homogenizer with the subsequent separation of plasmatic membranes from cell nuclei, mitochondrias and cell wreckages by differential centrifugation. […] After incubation the samples are filtered in vacuo on glass-microfiber filters G/F (Millipor, USA), filters are washed three times with cold solution of medium and radioactivity is measured by scintillation counter MicroBeta 340 (Perkin Elmer, USA). […] Ketanserin is used as positive control. The tested compounds' binding to the receptor is determined by their ability to displace the radioligand and is expressed in percent of displacement (%I). Values of %I are calculated according to the following equation: %I = (TA-CA)/(TA-NA)*100, [formula] wherein: TA - is the overall radioactivity in the presence of radioligand only, CA - is the radioactivity in the presence of radioligand and tested compound and NA - is the radioactivity in the presence of radioligand and Serotonin (10 µM).

Test [5] deals with T2, recombinant human 5-HT6 receptor (Homo sapiens, UniProt P50406).
T2 construct: expressed in transfected cells; host or cells: HeLa
T2 sequence (P50406 whole entry): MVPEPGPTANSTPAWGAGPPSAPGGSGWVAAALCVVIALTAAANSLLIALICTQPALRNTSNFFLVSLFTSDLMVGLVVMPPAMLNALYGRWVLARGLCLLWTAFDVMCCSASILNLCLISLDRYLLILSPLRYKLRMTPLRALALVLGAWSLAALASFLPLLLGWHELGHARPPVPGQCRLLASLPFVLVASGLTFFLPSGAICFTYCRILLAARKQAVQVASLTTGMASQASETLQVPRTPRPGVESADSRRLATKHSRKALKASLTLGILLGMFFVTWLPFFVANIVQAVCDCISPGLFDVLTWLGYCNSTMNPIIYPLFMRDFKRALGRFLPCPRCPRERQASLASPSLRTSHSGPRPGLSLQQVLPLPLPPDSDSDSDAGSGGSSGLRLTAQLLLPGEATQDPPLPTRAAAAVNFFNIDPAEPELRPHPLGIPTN
Kind of test: Radioligand binding to serotonin receptor 5-HT6 ([3H] Lysergic acid diethylamide, HeLa membranes). The note with it: read-out: 5-HT6 % inhibition. From the text:
Mol Pharmacol. 43:320-327, 1993]. […] Methiothepin is used as positive control.

Test [6] concerns the target T3, serotonin receptor 5-HT1B (Rattus norvegicus, UniProt P28564).
T3 construct: membrane species are prepared from rat brains (Wistar) by homogenization of species of rat brain-cortices; from tissue; host or cells: rat (Wistar) brain cortex
The test can be described thus: Radioligand binding to serotonin receptor 5-HT1B ([125I] cyanopindolol, rat brain cortex membranes). From the text:
Serotonin is used as positive control.

Test [7] concerns the target T4, recombinant human 5-HT2A receptor (Homo sapiens, UniProt P28223).
T4 construct: expressed in transfected cells; host or cells: CHO-K1
Kind of test: Radioligand binding to serotonin receptor 5-HT2A ([3H] Ketanserin, CHO-K1 membranes). The settings on record: 10 µM ligand. From the text: 9-C. […] J Neurochem. […] Ketanserin is used as positive control.

The next test addresses T5, recombinant human 5-HT1A (Homo sapiens, UniProt P08908).
T5 construct: expressed in transfected cells; host or cells: CHO
T5 sequence (P08908 1-422): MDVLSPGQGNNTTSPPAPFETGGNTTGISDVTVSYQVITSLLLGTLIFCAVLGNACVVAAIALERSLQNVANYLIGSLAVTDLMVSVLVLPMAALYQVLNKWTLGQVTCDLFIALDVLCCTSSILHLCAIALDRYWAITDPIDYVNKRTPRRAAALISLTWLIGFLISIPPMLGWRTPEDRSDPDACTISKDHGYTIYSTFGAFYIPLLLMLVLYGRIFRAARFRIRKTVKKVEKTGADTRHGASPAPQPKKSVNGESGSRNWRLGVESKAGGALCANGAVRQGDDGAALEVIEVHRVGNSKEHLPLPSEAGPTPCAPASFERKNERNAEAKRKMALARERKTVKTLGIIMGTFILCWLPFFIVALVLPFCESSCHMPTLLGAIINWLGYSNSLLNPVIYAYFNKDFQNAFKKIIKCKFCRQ
Kind of test: Radioligand binding to serotonin receptor 5-HT1A ([3H] 8-OH-DPAT, CHO membranes). The settings on record: read-out: 5-HT1A % inhibition. From the text: J Pharmacol Exp Ther. 306(1): 301-309, 2003]. […] Metergoline is used as positive control.

The next test concerns the target T6, human D4.2 receptor (Homo sapiens, UniProt P21917, DEL265-296).
T6 construct: expressed in transfected cells; host or cells: CHO-K1
T6 sequence (P21917 with tags, fused parts or gaps DEL265-296): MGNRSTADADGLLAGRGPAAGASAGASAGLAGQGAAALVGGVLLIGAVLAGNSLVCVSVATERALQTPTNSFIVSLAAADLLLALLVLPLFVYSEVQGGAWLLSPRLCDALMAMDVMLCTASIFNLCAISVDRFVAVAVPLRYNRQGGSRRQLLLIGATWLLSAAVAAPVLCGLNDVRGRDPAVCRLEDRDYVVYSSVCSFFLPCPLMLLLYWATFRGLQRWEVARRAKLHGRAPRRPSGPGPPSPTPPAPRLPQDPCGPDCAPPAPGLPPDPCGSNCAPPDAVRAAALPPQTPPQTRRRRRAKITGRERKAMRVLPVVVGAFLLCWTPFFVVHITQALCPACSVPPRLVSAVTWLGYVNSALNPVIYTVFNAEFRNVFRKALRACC
Kind of test: Radioligand binding to dopamine receptor D4.2 ([3H] Spiperone, CHO-K1 membranes). The note with it: read-out: Dopamine receptors, % inhibition D4.2.

For a further test, the system named is imidazoline receptor I2. The test can be described thus: Radioligand binding to imidazoline receptor I2 ([3H] Idazoxan, rat brain membranes). The note with it: 10 µM ligand.
Test [8] concerns male mice of BALB/c line. The test can be described thus: Mice Behavior in the Elevated Plus Maze. It counts as in vivo. The note with it: doses of 0,05 and 0,1 mg/kg. From the text: Example 16. […] The length of each arm of the maze was 30cm, width is 5cm, and height of the walls was 15cm. Two opposite arms were closed from both sides and end faces by transparent walls, the other two arms were lit and opened. A mouse was placed in the center of the maze and for the next five minutes the number of entries into opened and closed arms and the time spent in each type of arms was registered. […] The animals usually avoided opened arms (the preference index is between 0.2 and 0.3). Compounds with tranquilizing action increased this index up to 0.5-0.6 or even more and reduced the number of defecations without changing the overall motion activity of the mice (the total number of their entries to the arms).

In another test the target is T7, human D3 receptor (Homo sapiens, UniProt P35462).
T7 construct: expressed in transfected cells; host or cells: CHO
T7 sequence (P35462 whole entry): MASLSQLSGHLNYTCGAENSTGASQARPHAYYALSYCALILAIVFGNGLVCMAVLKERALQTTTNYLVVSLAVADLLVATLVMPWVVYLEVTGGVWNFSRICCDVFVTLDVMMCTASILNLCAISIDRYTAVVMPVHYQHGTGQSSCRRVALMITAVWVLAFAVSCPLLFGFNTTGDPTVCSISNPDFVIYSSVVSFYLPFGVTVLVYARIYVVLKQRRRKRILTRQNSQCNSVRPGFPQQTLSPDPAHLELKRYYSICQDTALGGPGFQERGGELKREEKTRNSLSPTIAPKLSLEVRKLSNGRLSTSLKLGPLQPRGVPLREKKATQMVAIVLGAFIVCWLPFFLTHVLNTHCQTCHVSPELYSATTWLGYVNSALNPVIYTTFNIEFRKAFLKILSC
Kind of test: Radioligand binding to dopamine receptor D3 ([3H] Spiperone, CHO membranes). The source says: For this purpose sDNA of human D3 receptor is expressed in CHO cells, as it was described in [Sokoloff P, Giros B, Martres M-P, Bouthenet M-L and Schwartz J-C. Molecular cloning and characterization of novel dopamine receptor (D3) as target for neuroleptics. Nature. […] Molecular cloning and characterization of novel dopamine receptor (D3) as target for neuroleptics. Nature. […] Spiperone is used as positive control.

The target in the next test is T8, human D1 receptor (Homo sapiens, UniProt P21728).
T8 construct: expressed in transfected cells; host or cells: CHO
T8 sequence (P21728 whole entry): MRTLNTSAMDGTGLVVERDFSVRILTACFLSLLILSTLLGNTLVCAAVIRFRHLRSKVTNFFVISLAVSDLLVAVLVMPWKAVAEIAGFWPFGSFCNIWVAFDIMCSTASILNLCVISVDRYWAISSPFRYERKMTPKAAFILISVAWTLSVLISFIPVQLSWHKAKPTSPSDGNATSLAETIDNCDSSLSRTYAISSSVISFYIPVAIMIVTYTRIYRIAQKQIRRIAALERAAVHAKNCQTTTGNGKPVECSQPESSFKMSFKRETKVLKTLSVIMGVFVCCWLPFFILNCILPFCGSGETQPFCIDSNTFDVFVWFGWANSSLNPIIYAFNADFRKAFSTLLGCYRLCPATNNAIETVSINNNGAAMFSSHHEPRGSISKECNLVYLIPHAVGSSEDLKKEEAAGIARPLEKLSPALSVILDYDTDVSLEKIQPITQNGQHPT
Kind of test: Radioligand binding to dopamine receptor D1 ([3H] SCH-23390, CHO membranes). The note with it: read-out: Dopamine receptors, % inhibition D1. From the text:
For this purpose sDNA of human D1 receptor is expressed in CHO cells, as it was described in [Dearry A, Gingrich JA, Falardeau P, Fremeau RT Jr, Bates MD and Caron MG. Molecular cloning and expression of the gene for a human D1 dopamine receptor. Nature. […] Nature.

In test [9] the target is T9, recombinant human 5-HT2C receptor (Homo sapiens, UniProt P28335).
T9 construct: expressed in transfected cells; host or cells: CHO-K1
T9 sequence (P28335 33-458): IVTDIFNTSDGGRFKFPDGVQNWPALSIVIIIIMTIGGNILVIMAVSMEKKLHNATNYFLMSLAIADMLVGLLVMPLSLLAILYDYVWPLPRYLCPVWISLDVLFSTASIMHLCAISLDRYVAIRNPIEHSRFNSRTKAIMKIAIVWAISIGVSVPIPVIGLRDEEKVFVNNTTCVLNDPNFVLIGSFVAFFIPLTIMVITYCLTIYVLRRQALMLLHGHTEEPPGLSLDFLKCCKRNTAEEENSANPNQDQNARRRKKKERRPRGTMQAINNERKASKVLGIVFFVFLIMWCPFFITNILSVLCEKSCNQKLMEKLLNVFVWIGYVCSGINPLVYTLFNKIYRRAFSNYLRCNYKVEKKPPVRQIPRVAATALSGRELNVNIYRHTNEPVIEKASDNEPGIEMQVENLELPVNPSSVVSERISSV
Kind of test: Radioligand binding to serotonin receptor 5-HT2C ([3H] Mesulergine, CHO-K1 membranes). The settings on record: 10 µM ligand. The source says: J Neurochem. 69: 1449 - 1458, 1997]. […] SB242084 is used as positive control.

T4 sequence (P28223 whole entry): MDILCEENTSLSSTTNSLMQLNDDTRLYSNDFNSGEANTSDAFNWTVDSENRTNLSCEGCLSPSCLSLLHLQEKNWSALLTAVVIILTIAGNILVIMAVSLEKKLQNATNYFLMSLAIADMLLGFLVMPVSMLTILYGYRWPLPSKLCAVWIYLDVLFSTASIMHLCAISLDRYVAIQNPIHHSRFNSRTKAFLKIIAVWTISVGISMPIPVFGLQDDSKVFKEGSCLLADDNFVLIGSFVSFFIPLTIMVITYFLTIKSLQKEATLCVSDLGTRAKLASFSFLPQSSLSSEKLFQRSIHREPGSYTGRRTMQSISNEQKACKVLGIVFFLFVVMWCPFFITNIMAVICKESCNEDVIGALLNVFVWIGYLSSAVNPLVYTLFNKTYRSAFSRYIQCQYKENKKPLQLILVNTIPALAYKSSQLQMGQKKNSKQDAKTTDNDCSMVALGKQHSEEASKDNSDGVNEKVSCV
T1 sequence (P41595 whole entry): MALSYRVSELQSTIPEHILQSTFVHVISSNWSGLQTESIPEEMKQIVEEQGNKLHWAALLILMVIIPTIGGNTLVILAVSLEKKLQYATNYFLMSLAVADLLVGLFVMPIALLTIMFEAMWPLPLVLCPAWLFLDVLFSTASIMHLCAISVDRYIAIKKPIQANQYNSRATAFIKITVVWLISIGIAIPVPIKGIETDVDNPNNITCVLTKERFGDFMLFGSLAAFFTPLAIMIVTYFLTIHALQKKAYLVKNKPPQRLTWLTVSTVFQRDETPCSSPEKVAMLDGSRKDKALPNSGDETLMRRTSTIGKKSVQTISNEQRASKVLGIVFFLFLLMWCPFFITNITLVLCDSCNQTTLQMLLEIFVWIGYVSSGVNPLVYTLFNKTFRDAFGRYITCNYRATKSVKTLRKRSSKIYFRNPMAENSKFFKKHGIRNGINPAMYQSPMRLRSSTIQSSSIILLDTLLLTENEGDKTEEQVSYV
T3 sequence (P28564 whole entry): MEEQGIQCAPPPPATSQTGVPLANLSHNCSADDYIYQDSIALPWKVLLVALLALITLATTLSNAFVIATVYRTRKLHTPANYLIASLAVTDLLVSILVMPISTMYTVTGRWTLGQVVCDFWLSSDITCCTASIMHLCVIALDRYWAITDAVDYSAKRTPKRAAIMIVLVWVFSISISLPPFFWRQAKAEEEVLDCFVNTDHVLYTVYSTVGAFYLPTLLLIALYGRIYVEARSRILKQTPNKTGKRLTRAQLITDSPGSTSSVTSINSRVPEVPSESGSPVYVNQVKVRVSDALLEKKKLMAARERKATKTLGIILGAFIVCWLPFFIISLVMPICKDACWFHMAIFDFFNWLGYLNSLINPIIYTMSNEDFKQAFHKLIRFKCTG
Experimental for human D4.2 receptor: Screening of the disclosed compounds for potential ability to interact with dopamine receptor D4.2 is carried out by method of radioligand binding. […] From the cells transfected in this way membrane species are prepared by homogenization of these cells in glass homogenizer with the subsequent separation of plasmatic membranes from cell nuclei, mitochondrias and cell wreckages by differential centrifugation. […] After incubation samples are filtered in vacuo on glass-microfiber filters G/F (Millipor, USA), filters are washed three times with cold solution of medium and radioactivity is measured by scintillation counter MicroBeta 340 (Perkin Elmer, USA). Nonspecific binding which makes up 10% of the overall binding is determined by incubation of membrane species with radioligand in the presence of 10 µM of Haloperidol.
Spiperone is used as positive control. Tested compounds' binding to the receptor is determined by their ability to displace radioligand and expressed in percent of displacement (%I). Values of %I are calculated according to the following equation: %I = (TA-CA)/(TA-NA)*100, [formula] wherein: TA - is overall radioactivity in the presence of radioligand only, CA - is radioactivity in the presence of radioligand and tested compound and NA - is radioactivity in the presence of radioligand and Haloperidol (10 µM).
Experimental for imidazoline receptor I2: For this purpose membrane species are prepared from rat (Wistar) brain homogenates by homogenization of them in glass homogenizer with the subsequent separation of plasmatic membranes from cell nuclei, mitochondrias and cell wreckages by differential centrifugation. […] After incubation the samples are filtered in vacuo on glass-microfiber filters G/F (Millipor, USA), filters are washed three times with cold solution of medium and radioactivity is measured by scintillation counter MicroBeta 340 (Perkin Elmer, USA). […] Idazoxan is used as positive control.
The tested compounds' binding to the receptor is determined by their ability to displace the radioligand and expressed in percent of displacement (%I). Values of %I are calculated according to the following equation: %I = (TA-CA)/(TA-NA)*100, [formula] wherein: TA - is the overall radioactivity in the presence of radioligand only, CA - is the radioactivity in the presence of radioligand and tested compound and NA - is a radioactivity in the presence of radioligand and Idazoxan (1 µM).

As for `Cc1ccc2c(c1)c1c(n2CCc2ccccc2)CCN(C)C1` [1.1.2(1-2), 2,8-dimethyl-5-phenethyl-1,2,3,4-tetrahydro-1H-pyrido[4,3-b]indole], the “enhancement of memory disturbed by Scopolamine” value (“enhancement of memory disturbed” for short) in the test with male mice of BALB/c line [1] is on record as “improve memory”. The “time of complete immobility, lowered by factor” value in the test with mice [2] is about 2.5. Further, in the test on mice [3], the “memory disorders caused by Scopolamine (time spent in area of the platform)” value (from here on “memory disorders caused by Scopolamine”) is on record as “decreasing memory disorders”.
Take `Cc1ccc2c(c1)c1c(n2CCc2ccncc2)CCN(C)C1` [1.1.2(5-2)·2HCl]: the inhibition at 10 µM turned out to be 80% in test [4] (read-out: 5-HT2B % inhibition); 91% in test [5]; 14% in test [6] (read-out: 5-HT1B % inhibition); 88% in test [7]; 17% at recombinant human 5-HT1A. Further, in the test with male mice of BALB/c line [1], the “enhancement of memory disturbed” value is reported as “improve memory”.
Turning to `Cc1ccc2c(c1)[C@H]1CN(C)CCC[C@@H]1N2CCc1ccc(C)nc1` (relative stereo) [1.6.2(11)], at human D4.2 receptor, the inhibition at 10 µM is 6%. Also, in the test on imidazoline receptor I2, the “% inhibition” value stood at 83%.
Consider `Cc1ccc2c(c1)c1c(n2CCc2ccc(C)nc2)CCN(C)C1.Cl.Cl` [1.1.2(4-2)], for which the “Anxiolytic (tranquilizing) action” value in the test on male mice of BALB/c line [8] is “exhibit analogous action”. In addition, the “enhancement of memory disturbed” value with male mice of BALB/c line [1] is “improve memory”. The “memory disorders caused by Scopolamine” value in the test on mice [3] is “decreasing memory disorders”.
Turning to `Cc1ccc2c(c1)c1c(n2CCc2ccccc2)CCN(C)C1` [1.1.2(1-2) ·2HCl], the half-inhibitory concentration (IC50) on human D3 receptor was found to be 256 nM. This compound also gave a Ki at human D3 receptor (Receptor D3) of 868 nM. The compound further displayed a nH on human D3 receptor (Receptor D3) of 0.797. For the same compound, the inhibition at 10 µM on human D3 receptor (read-out: Dopamine receptors, % inhibition D3) stood at 99%; at human D4.2 receptor it was 103%; at human D1 receptor, 89%.
Consider `Cc1ccc2c(c1)c1c(n2CCc2ccncc2)CCCN(C)C1` [1.2.2(5-3)·2HCl], for which the “memory disorders caused by Scopolamine” value in the test on mice [3] is recorded as “decreasing memory disorders”.
Take `Cc1ccc2c(c1)c1c(n2/C=C\c2ccccc2)CCN(C)C1` [1.1(6)]: the 5-HT2B % inhibition in test [4] (10 µM ligand) was found to be 98%. For the same compound, the 5-HT2C % inhibition in test [9] amounted to 101%. Moreover, in the test with male mice of BALB/c line [1], the “enhancement of memory disturbed” value is “improve memory”. The same compound came in with a 5-HT1B % inhibition in test [6] (10 µM ligand) of 86%. Besides, the 5-HT2A % inhibition in test [7] is listed as 100%.
